Assays:
[1] = test system: MOLT-4; experiment: Antitumor activity against human MOLT4 cells after 48 hrs by MTT assay; type: functional; conditions: MOLT-4, 48 h
[2] = test system: SR; experiment: Antitumor activity against human SR cells after 48 hrs by MTT assay; type: functional
[3] = test system: EKVX; experiment: Antitumor activity against human EKVX cells after 48 hrs by MTT assay; type: functional
[4] = test system: NCI-H322M; experiment: Antitumor activity against human NCI-H322M cells after 48 hrs by MTT assay; type: functional
[5] = test system: HCT-116; experiment: Antitumor activity against human HCT116 cells after 48 hrs by MTT assay; type: functional; conditions: HCT-116, 48 h
[6] = test system: KM12; experiment: Antitumor activity against human KM12 cells after 48 hrs by MTT assay; type: functional; conditions: KM12, 48 h
[7] = test system: SF-539; experiment: Antitumor activity against human SF539 cells after 48 hrs by MTT assay; type: functional; conditions: SF-539, 48 h
[8] = test system: SNB-75; experiment: Antitumor activity against human SNB75 cells after 48 hrs by MTT assay; type: functional; conditions: SNB-75, 48 h
[9] = test system: MDA-MB-435; experiment: Antitumor activity against human MDA-MB-435 cells after 48 hrs by MTT assay; type: functional; conditions: MDA-MB-435, 48 h
[10] = test system: SK-MEL-28; experiment: Antitumor activity against human SK-MEL-28 cells after 48 hrs by MTT assay; type: functional; conditions: SK-MEL-28, 48 h
[11] = test system: SK-MEL-5; experiment: Antitumor activity against human SK-MEL-5 cells after 48 hrs by MTT assay; type: functional; conditions: SK-MEL-5, 48 h
[12] = test system: UACC-257; experiment: Antitumor activity against human UACC257 cells after 48 hrs by MTT assay; type: functional; conditions: UACC-257, 48 h
[13] = test system: OVCAR-3; experiment: Antitumor activity against human OVCAR-3 cells after 48 hrs by MTT assay; type: functional; conditions: OVCAR-3, 48 h
[14] = test system: OVCAR-5; experiment: Antitumor activity against human OVCAR5 cells after 48 hrs by MTT assay; type: functional; conditions: OVCAR-5, 48 h
[15] = test system: NCI/ADR-RES; experiment: Antitumor activity against human NCI/ADR-RES cells after 48 hrs by MTT assay; type: functional
[16] = test system: 786-0; experiment: Antitumor activity against human 786-0 cells after 48 hrs by MTT assay; type: functional; conditions: 786-0, 48 h
[17] = test system: ACHN; experiment: Antitumor activity against human ACHN cells after 48 hrs by MTT assay; type: functional, cell-based
[18] = test system: RXF 393; experiment: Antitumor activity against human RXF393 cells after 48 hrs by MTT assay; type: functional; conditions: RXF 393, 48 h
[19] = test system: SN12C; experiment: Antitumor activity against human SN12C cells after 48 hrs by MTT assay; type: functional
[20] = test system: UO-31; experiment: Antitumor activity against human UO31 cells after 48 hrs by MTT assay; type: functional; conditions: UO-31, 48 h
[21] = test system: PC-3; experiment: Antitumor activity against human PC3 cells after 48 hrs by MTT assay; type: functional; conditions: PC-3, 48 h
[22] = test system: DU-145; experiment: Antitumor activity against human DU145 cells after 48 hrs by MTT assay; type: functional; conditions: DU-145, 48 h
[23] = Antitumor activity against human MCF7/ADR cells after 48 hrs by MTT assay; type: functional; conditions: NCI/ADR-RES
[24] = test system: CCRF-CEM; experiment: Antitumor activity against human CCRF-CEM cells after 48 hrs by MTT assay; type: functional
[25] = test system: HL-60(TB); experiment: Antitumor activity against human HL-60(TB) cells after 48 hrs by MTT assay; type: functional; conditions: HL-60, 48 h
[26] = read-out: pLC50 (the source's name) (converted)

In the case of OCc1ccc(-c2nn(Cc3ccccc3)c3cc[se]c23)o1, the GI50 [1] is reported as 22.9 µM, the CC50 [1, 26] is reported as > 100 µM and the GI50 [2] is reported as 21.9 µM. The CC50 [2, 26] was > 100 µM, the TGI ([2]; read-out: pTGI (converted)) was 63.1 µM and the GI50 [3] was 33.1 µM. For the same compound, the CC50 [3, 26] was > 100 µM, the TGI ([3]; read-out: pTGI) was > 100 µM and the GI50 [4] was 40.7 µM. The CC50 [4, 26] was > 100 µM, the TGI ([4]; read-out: pTGI) was > 100 µM and the GI50 [5] was 18.2 µM. For the same compound, the CC50 [5, 26] was > 100 µM, the TGI ([5]; read-out: pTGI) was > 100 µM and the GI50 [6] was 49 µM. The CC50 [6, 26] was > 100 µM, the TGI ([6]; read-out: pTGI) was > 100 µM and the GI50 [7] was 27.5 µM. The CC50 [7, 26] was > 100 µM, the TGI ([7]; read-out: pTGI) was > 100 µM and the GI50 [8] was 22.4 µM. For the same compound, the CC50 [8, 26] was > 100 µM, the TGI ([8]; read-out: pTGI (converted)) was 100 µM and the GI50 [9] was 23.4 µM. The CC50 [9, 26] was > 100 µM, the TGI ([9]; read-out: pTGI (converted)) was 75.9 µM and the GI50 [10] was 28.8 µM. For the same compound, the CC50 [10, 26] was > 100 µM, the TGI ([10]; read-out: pTGI (converted)) was 91.2 µM and the GI50 [11] was 31.6 µM. The CC50 [11, 26] was > 100 µM, the TGI ([11]; read-out: pTGI (converted)) was 89.1 µM and the GI50 [12] was 18.2 µM. For the same compound, the CC50 [12, 26] was > 97.7 µM, the TGI ([12]; read-out: pTGI (converted)) was 41.7 µM and the GI50 [13] was 13.2 µM. The CC50 [13, 26] was > 100 µM, the TGI ([13]; read-out: pTGI (converted)) was 79.4 µM and the GI50 ([14]; read-out: pGI50 (converted)) was 7.41 µM. For the same compound, the CC50 [14, 26] was > 100 µM, the TGI ([14]; read-out: pTGI) was > 100 µM and the GI50 ([15]; read-out: pGI50 (converted)) was 25.7 µM. The CC50 [15, 26] was > 100 µM, the TGI ([15]; read-out: pTGI) was > 100 µM and the GI50 ([16]; read-out: pGI50 (converted)) was 33.1 µM. The CC50 [16, 26] was > 100 µM, the TGI ([16]; read-out: pTGI) was > 100 µM and the GI50 ([17]; read-out: pGI50 (converted)) was 25.7 µM. The LC50 ([17]; read-out: pLC50 (converted)) was > 100 µM, the TGI ([17]; read-out: pTGI) was < 100 µM and the GI50 ([18]; read-out: pGI50 (converted)) was 11.5 µM. For the same compound, the CC50 [18, 26] was > 100 µM, the TGI ([18]; read-out: pTGI) was 51.3 µM and the GI50 ([19]; read-out: pGI50 (converted)) was 43.6 µM. For the same compound, the CC50 [19, 26] was > 100 µM, the TGI ([19]; read-out: pTGI) was > 100 µM and the GI50 ([20]; read-out: pGI50 (converted)) was 41.7 µM. For the same compound, the CC50 [20, 26] was > 100 µM, the TGI ([20]; read-out: pTGI) was > 100 µM and the GI50 ([21]; read-out: pGI50 (converted)) was 27.5 µM. The CC50 [21, 26] was > 100 µM, the TGI ([21]; read-out: pTGI) was > 100 µM and the GI50 ([22]; read-out: pGI50 (converted)) was 45.7 µM. The CC50 [22, 26] was > 100 µM, the TGI ([22]; read-out: pTGI) was > 100 µM and the CC50 [23, 26] was > 100 µM. The TGI ([23]; read-out: pTGI) was > 100 µM, the GI50 [24] was 24.5 µM and the CC50 [24, 26] was > 100 µM. For the same compound, the TGI ([24]; read-out: pTGI) was > 100 µM, the GI50 [25] was 19.5 µM and the CC50 [25, 26] was > 100 µM. The TGI ([25]; read-out: pTGI (converted)) was 49 µM.

Source: ChEMBL document CHEMBL1157034, “Synthesis of 1-benzyl-3-(5-hydroxymethyl-2-furyl)selenolo[3,2-c]pyrazole derivatives as new anticancer agents” (Eur J Med Chem, 2010)
